Laboratory results reported in US11572369B2, “Bicyclic pyridine compositions and methods of using the same for cancer therapy” (UNIVERSITY OF SOUTH CAROLINA, priority 2019, dated 2023).

Key:
Experiment in all cases: KINOMEscan
Assay type in all cases: binding
Settings in all cases: 2000 nM
[1] = molecular target: T1, HIPK3 (Homo sapiens, UniProt Q9H422)
T1 construct: DNA label (for qPCR read-out); purchased DiscoveRx (KINOMEscan scanMAX panel, contract assay)

[2] = molecular target: T2, EPHA5 (Homo sapiens, UniProt P54756)
T2 construct: purchased DiscoveRx (KINOMEscan scanMAX panel)

[3] = molecular target: T3, ERK2 (Homo sapiens, UniProt P28482)
T3 construct: DNA label (qPCR read-out); purchased DiscoveRx (KINOMEscan ScanMAX panel)

[4] = molecular target: T4, MET (Homo sapiens, UniProt P08581)
T4 construct: purchased DiscoveRx (KINOMEscan scanMAX panel, service)

[5] = molecular target: T5, FGR (Homo sapiens, UniProt P09769)
T5 construct: purchased DiscoveRx (KINOMEscan scanMAX panel)

[6] = molecular target: T6, MEK6 (Homo sapiens, UniProt P52564)
T6 construct: purchased DiscoveRx (KINOMEscan scanMAX panel, service)

[7] = molecular target: T7, PRKCI (Homo sapiens, UniProt P41743)
T7 construct: purchased DiscoveRx (KINOMEscan scanMAX panel)

[8] = molecular target: T8, CDK9 (Homo sapiens, UniProt P50750)
T8 construct: purchased DiscoverX (KINOMEscan service)

[9] = molecular target: T9, TIE2 (Homo sapiens, UniProt Q02763)
T9 construct: DNA label (qPCR read-out); purchased KINOMEscan (DiscoveRx) ScanMAX panel

[10] = molecular target: T10, BMX (Homo sapiens, UniProt P51813)
T10 construct: DNA label (for qPCR read-out); purchased KINOMEscan scanMAX panel (DiscoveRx)

[11] = molecular target: MAP4K3 (Homo sapiens, UniProt Q8IVH8)
[12] = molecular target: T11, PHKG1 (Homo sapiens, UniProt Q16816)
T11 construct: DNA label (for qPCR read-out); purchased DiscoveRx (KINOMEscan scanMAX service)

[13] = molecular target: T12, PIK3CG (Homo sapiens, UniProt P48736)
T12 construct: DNA label; purchased DiscoveRx (KINOMEscan scanMAX panel)

[14] = molecular target: T13, NEK2 (Homo sapiens, UniProt P51955)
T13 construct: DNA label (qPCR read-out); purchased KINOMEscan (ScanMAX panel service)

[15] = molecular target: T14, JNK3 (Homo sapiens, UniProt P53779)
T14 construct: DNA label (for qPCR read-out); purchased DiscoveRx (KINOMEscan scanMAX panel)

[16] = molecular target: T15, ERBB2 (Homo sapiens, UniProt P04626)
T15 construct: DNA label (qPCR read-out); purchased DiscoveRx (KINOMEscan ScanMAX panel)

[17] = molecular target: T16, FLT3(D835Y) (Homo sapiens, UniProt P36888, D835Y)
T16 construct: purchased DiscoveRx (KINOMEscan scanMAX panel)

[18] = molecular target: MARK1 (Homo sapiens, UniProt Q9P0L2)
[19] = molecular target: T17, HPK1 (Homo sapiens, UniProt Q92918)
T17 construct: DNA label (for qPCR read-out); purchased DiscoveRx (KINOMEscan scanMAX panel, contract assay)

[20] = molecular target: T18, MST1R (Homo sapiens, UniProt Q04912)
T18 construct: DNA label (qPCR read-out); purchased KINOMEscan scanMAX panel (DiscoveRx)

[21] = molecular target: T19, YANK3 (Homo sapiens, UniProt Q86UX6)
T19 construct: purchased KINOMEscan (DiscoveRx) panel service

[22] = molecular target: T20, CDK7 (Homo sapiens, UniProt P50613)
T20 construct: purchased DiscoverX (KINOMEscan service)

[23] = molecular target: T21, FGFR1 (Homo sapiens, UniProt P11362)
T21 construct: purchased DiscoveRx (KINOMEscan scanMAX panel)

[24] = molecular target: T22, RIOK1 (Homo sapiens, UniProt Q9BRS2)
T22 construct: DNA label (qPCR read-out); purchased DiscoveRx (KINOMEscan ScanMAX panel)

[25] = molecular target: T23, NEK9 (Homo sapiens, UniProt Q8TD19)
T23 construct: DNA label (qPCR read-out); purchased KINOMEscan (ScanMAX panel service)

[26] = molecular target: T24, EGFR(L858R) (Homo sapiens, UniProt P00533, L858R)
T24 construct: purchased DiscoveRx (KINOMEscan scanMAX panel)

[27] = molecular target: T25, EPHA1 (Homo sapiens, UniProt P21709)
T25 construct: purchased DiscoveRx (KINOMEscan scanMAX panel)

[28] = molecular target: T26, CIT (Homo sapiens, UniProt O14578)
T26 construct: DNA label (for qPCR read-out); purchased DiscoveRx (KINOMEscan scanMAX service)

[29] = molecular target: T27, p38-delta (Homo sapiens, UniProt O15264)
T27 construct: purchased DiscoverX (KINOMEscan service)

[30] = molecular target: T28, NEK6 (Homo sapiens, UniProt Q9HC98)
T28 construct: DNA label (qPCR read-out); purchased KINOMEscan (ScanMAX panel service)

[31] = molecular target: T29, TEC (Homo sapiens, UniProt P42680)
T29 construct: DNA label (for qPCR read-out); purchased DiscoveRx (KINOMEscan scanMAX panel, contract assay)

[32] = molecular target: T30, RSK3(Kin.Dom.2-C-terminal) (Homo sapiens, UniProt Q15349)
T30 construct: RSK3(Kin.Dom.2); purchased DiscoveRx (KINOMEscan scanMAX panel)

[33] = molecular target: T31, PIK3C2G (Homo sapiens, UniProt O75747)
T31 construct: DNA label (for qPCR read-out); purchased DiscoveRx (KINOMEscan scanMAX service)

[34] = molecular target: T32, TAOK3 (Homo sapiens, UniProt Q9H2K8)
T32 construct: DNA label (for qPCR read-out); purchased DiscoveRx (KINOMEscan scanMAX panel, contract assay)

[35] = molecular target: T33, FLT4 (Homo sapiens, UniProt P35916)
T33 construct: purchased KINOMEscan (DiscoveRx)

[36] = molecular target: ABL1(Q252H)-nonphosphorylated (Homo sapiens, UniProt P00519, Q252H)

T22 sequence (Q9BRS2 whole entry): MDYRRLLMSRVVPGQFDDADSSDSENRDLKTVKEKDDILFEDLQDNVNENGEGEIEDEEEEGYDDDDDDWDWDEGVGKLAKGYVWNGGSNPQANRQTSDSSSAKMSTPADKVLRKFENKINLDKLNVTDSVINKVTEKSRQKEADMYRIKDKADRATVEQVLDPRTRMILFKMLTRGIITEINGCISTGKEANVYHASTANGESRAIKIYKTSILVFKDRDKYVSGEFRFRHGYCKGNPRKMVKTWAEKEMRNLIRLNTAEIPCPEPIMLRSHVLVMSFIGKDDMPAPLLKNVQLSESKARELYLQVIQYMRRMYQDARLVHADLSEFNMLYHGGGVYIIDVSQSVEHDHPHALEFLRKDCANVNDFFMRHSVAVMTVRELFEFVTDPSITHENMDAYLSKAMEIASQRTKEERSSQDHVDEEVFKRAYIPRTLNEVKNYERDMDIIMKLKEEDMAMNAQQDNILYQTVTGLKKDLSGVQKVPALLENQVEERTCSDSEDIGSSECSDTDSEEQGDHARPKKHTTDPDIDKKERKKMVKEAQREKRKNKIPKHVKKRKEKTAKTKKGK
T8 sequence (P50750 whole entry): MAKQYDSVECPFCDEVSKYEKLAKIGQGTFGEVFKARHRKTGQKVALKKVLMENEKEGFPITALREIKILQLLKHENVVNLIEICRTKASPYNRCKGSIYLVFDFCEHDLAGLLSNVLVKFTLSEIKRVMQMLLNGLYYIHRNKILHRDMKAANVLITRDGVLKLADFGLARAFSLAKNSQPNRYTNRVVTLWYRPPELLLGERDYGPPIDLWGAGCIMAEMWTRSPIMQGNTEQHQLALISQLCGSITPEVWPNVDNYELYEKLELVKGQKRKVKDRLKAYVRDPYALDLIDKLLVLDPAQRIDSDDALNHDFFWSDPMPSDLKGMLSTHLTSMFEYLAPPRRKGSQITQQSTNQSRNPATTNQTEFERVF
T23 sequence (Q8TD19 whole entry): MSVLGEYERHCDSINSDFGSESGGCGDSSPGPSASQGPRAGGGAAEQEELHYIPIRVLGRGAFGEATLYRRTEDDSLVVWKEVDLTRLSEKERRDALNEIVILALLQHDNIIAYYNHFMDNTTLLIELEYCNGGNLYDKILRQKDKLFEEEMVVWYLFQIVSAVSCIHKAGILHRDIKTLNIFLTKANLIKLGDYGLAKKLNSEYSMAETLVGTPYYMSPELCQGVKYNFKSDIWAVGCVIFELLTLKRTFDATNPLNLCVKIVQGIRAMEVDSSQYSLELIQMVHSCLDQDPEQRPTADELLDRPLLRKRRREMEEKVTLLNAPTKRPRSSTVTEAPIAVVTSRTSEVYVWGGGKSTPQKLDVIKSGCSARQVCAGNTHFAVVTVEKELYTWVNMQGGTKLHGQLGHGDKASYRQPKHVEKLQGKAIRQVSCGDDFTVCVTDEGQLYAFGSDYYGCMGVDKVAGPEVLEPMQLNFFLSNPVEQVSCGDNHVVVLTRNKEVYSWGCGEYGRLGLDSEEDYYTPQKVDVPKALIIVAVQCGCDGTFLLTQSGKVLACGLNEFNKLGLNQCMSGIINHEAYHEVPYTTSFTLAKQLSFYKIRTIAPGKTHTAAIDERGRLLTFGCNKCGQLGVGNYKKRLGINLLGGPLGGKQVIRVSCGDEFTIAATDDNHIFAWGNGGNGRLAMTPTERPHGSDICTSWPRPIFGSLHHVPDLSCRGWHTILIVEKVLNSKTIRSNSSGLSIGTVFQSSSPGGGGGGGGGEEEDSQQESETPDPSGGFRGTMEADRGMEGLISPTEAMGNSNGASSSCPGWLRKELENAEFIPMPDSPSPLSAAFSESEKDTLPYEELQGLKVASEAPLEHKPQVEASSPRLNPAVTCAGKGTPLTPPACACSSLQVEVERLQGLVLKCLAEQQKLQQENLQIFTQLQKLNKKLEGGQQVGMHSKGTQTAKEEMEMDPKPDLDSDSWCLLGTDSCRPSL
Sequence of MARK1 (Q9P0L2 whole entry): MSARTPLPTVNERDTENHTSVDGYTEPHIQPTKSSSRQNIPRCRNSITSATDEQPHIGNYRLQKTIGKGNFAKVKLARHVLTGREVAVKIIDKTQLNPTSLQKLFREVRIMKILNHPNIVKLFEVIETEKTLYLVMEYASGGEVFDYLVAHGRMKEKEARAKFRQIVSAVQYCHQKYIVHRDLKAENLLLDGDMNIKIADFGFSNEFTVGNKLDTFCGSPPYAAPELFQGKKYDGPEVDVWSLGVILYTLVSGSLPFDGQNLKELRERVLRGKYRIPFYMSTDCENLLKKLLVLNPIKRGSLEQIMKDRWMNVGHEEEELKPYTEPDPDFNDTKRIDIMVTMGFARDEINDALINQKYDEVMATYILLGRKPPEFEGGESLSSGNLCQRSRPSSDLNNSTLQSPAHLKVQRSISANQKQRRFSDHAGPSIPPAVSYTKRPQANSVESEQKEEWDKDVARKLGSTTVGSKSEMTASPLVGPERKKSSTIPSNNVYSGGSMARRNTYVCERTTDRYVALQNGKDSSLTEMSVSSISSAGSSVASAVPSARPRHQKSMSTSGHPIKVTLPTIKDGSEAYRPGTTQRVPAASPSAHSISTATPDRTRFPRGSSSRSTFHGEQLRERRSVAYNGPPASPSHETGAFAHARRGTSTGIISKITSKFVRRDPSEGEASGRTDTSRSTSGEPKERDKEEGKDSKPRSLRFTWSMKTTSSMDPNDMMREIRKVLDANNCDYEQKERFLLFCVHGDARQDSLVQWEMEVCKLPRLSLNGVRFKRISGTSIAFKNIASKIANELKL
T4 sequence (P08581 25-1390): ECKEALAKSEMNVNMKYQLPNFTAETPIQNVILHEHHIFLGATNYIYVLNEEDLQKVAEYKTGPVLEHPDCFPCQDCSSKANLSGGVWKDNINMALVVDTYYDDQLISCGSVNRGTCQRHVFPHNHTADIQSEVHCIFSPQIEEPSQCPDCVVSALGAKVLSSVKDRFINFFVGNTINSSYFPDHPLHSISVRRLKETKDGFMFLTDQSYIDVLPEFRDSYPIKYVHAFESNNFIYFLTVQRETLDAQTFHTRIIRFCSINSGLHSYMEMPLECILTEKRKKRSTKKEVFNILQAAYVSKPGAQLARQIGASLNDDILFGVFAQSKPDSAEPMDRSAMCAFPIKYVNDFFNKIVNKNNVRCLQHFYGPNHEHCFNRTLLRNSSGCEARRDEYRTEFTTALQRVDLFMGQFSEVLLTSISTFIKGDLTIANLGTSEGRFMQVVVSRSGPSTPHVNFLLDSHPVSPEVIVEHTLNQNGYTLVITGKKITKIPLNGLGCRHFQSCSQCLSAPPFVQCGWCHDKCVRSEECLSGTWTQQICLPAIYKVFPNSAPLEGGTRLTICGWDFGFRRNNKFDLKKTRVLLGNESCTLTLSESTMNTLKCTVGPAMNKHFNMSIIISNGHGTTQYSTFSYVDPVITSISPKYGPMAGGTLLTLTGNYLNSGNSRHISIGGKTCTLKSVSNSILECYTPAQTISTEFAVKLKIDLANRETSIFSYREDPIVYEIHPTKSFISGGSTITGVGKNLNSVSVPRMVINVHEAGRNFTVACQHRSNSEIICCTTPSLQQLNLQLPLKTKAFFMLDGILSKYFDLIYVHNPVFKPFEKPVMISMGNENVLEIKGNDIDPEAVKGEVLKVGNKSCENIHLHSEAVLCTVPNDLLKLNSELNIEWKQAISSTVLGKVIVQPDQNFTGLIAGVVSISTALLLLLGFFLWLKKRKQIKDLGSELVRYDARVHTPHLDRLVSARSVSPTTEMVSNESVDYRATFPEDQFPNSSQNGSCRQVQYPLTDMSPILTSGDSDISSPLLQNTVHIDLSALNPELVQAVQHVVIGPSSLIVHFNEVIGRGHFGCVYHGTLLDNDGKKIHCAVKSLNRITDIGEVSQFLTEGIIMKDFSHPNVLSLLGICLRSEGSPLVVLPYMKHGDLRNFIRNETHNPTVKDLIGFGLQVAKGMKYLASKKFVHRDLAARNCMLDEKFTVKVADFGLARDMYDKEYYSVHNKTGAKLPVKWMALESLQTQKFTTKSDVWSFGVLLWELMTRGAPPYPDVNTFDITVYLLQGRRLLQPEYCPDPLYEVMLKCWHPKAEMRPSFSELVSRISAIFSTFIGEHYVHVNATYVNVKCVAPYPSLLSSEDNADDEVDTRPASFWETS
T30 sequence (Q15349 415-672 limits assumed): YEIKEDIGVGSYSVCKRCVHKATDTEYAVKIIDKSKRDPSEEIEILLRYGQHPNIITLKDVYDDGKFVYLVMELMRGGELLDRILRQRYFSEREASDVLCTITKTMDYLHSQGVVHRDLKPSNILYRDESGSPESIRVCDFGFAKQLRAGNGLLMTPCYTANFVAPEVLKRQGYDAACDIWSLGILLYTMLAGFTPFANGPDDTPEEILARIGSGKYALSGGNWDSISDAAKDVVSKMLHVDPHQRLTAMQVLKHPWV
T29 sequence (P42680 whole entry): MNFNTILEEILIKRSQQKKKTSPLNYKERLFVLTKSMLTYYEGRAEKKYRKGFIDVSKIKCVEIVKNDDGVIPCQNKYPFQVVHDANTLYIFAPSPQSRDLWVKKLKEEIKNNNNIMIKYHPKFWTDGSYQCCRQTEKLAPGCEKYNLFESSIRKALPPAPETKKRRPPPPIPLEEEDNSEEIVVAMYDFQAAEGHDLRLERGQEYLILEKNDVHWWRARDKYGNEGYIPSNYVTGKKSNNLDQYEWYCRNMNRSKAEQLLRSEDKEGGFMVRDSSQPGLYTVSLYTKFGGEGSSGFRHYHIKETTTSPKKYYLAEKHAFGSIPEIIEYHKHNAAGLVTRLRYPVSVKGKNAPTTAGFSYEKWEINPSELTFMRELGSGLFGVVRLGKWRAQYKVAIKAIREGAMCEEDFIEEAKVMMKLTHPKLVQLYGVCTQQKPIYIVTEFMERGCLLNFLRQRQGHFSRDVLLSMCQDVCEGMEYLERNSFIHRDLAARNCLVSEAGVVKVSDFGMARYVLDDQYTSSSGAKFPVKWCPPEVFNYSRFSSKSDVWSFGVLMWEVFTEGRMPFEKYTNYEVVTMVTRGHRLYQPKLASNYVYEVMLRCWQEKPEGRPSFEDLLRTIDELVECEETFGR

Row | SMILES | % Ctrl [1] [% Ctrl] | % Ctrl [2] [% Ctrl] | % Ctrl [3] [% Ctrl] | % Ctrl [4] [% Ctrl] | % Ctrl [5] [% Ctrl] | % Ctrl [6] [% Ctrl] | % Ctrl [7] [% Ctrl] | % Ctrl [8] [% Ctrl] | % Ctrl [9] [% Ctrl] | % Ctrl [10] [% Ctrl] | % Ctrl [11] [% Ctrl] | % Ctrl [12] [% Ctrl] | % Ctrl [13] [% Ctrl] | % Ctrl [14] [% Ctrl] | % Ctrl [15] [% Ctrl] | % Ctrl [16] [% Ctrl] | % Ctrl [17] [% Ctrl] | % Ctrl [18] [% Ctrl] | % Ctrl [19] [% Ctrl] | % Ctrl [20] [% Ctrl] | further results
1 | CN(C)C(=O)c1ccc(N2CCCN(c3ccnc4sc(C(N)=O)c(N)c34)CC2)cc1 [15u, 3-amino-4-(4-(4-(dimethylcarbamoyl)phenyl)-1,4-diazepan-1-yl)thieno[2,3-b]pyridine-2-carboxamide] | 77 | 89 | 78 | 99 | 100 | 100 | 100 | 66 | 72 | 93 | 91 | 94 | 79 | 95 | 91 | 100 | 46 | 100 | 98 | 97 | % Ctrl [21]: 81 % Ctrl; % Ctrl [22]: 100 % Ctrl; % Ctrl [23]: 98 % Ctrl; % Ctrl [24]: 100 % Ctrl; % Ctrl [25]: 100 % Ctrl; % Ctrl [26]: 99 % Ctrl; % Ctrl [27]: 92 % Ctrl; % Ctrl [28]: 51 % Ctrl; % Ctrl [29]: 96 % Ctrl; % Ctrl [30]: 92 % Ctrl; % Ctrl [31]: 91 % Ctrl; % Ctrl [32]: 100 % Ctrl; % Ctrl [33]: 94 % Ctrl; % Ctrl [34]: 98 % Ctrl; % Ctrl [35]: 92 % Ctrl; % Ctrl [36]: 94 % Ctrl
2 | [2H]C([2H])([2H])N(C(=O)c1ccc(N2CCCN(c3ccnc4sc(C(N)=O)c(N)c34)CC2)cc1)C([2H])([2H])[2H] [15u_D6, 3-amino-4-(4-(4-(bis(methyl-d3)carbamoyl)phenyl)-1,4-diazepan-1-yl)thieno[2,3-b]pyridine-2-carboxamide] | 81 | 96 | 92 | 92 | 100 | 96 | 100 | 100 | 100 | 100 | 95 | 97 | 76 | 95 | 44 | 89 | 100 | 100 | 100 | 99 | % Ctrl [21]: 97 % Ctrl; % Ctrl [22]: 78 % Ctrl; % Ctrl [23]: 92 % Ctrl; % Ctrl [24]: 100 % Ctrl; % Ctrl [25]: 89 % Ctrl; % Ctrl [26]: 93 % Ctrl; % Ctrl [27]: 95 % Ctrl; % Ctrl [28]: 65 % Ctrl; % Ctrl [29]: 97 % Ctrl; % Ctrl [30]: 100 % Ctrl; % Ctrl [31]: 81 % Ctrl; % Ctrl [32]: 89 % Ctrl; % Ctrl [33]: 82 % Ctrl; % Ctrl [34]: 73 % Ctrl; % Ctrl [35]: 98 % Ctrl; % Ctrl [36]: 83 % Ctrl
